Species: Rattus norvegicus
Test: Open TG-GATES - Regimen: Daily Repeat
Type: toxicity, organism-based, Sprague-Dawley
Parameters: regimen Daily Repeat, gender Male, age 6 weeks
Conditions: in vivo, po, route gavage; for APTT / Bas / Eos / Fbg / Hb / Ht / Lym / MCH / MCHC / MCV / Mono / Neu / PT / Plat / RBC / Ret / WBC: tissue Blood; for KIDNEY_L / KIDNEY_R / KIDNEY_TOTAL: tissue Kidney; for LIVER: tissue Liver; for A/G / ALP / ALT / AST / BUN / CRE / Ca / Cl / DBIL / GLC / IP / K / LDH / Na / PL / RALB / TBIL / TC / TG / TP / gamma-GTP: tissue Plasma
[1] = 0 mg/kg, 72 h, dose level Control, time 3 day
[2] = 0 mg/kg, […], dose level Control, time 7 day
[3] = 0 mg/kg, […], dose level Control, time 14 day
[4] = 0 mg/kg, […], dose level Control, time 28 day
[5] = 8 mg/kg, 72 h, dose level Low, time 3 day
[6] = 8 mg/kg, […], dose level Low, time 7 day
[7] = 8 mg/kg, […], dose level Low, time 14 day
[8] = 8 mg/kg, […], dose level Low, time 28 day

NC1=NC(=O)C(c2ccccc2)O1 (centres undefined) [PEMOLINE]
TERMINAL_BW [1]: 236.5 g
APTT [1]: 16.2 s
Bas [1]: 0%
Eos [1]: 1%
Fbg [1]: 282.2 mg/dL
Hb [1]: 13.4 g/dL
Ht [1]: 39.7%
Lym [1]: 77.6%
MCH [1]: 21.7 pg
MCHC [1]: 33.7%
MCV [1]: 64.3 fL
Mono [1]: 3.4%
Neu [1]: 17.6%
PT [1]: 12.8 s
Plat [1]: 105.9 x10_4/uL
RBC [1]: 617.8 x10_4/ul
Ret [1]: 8%
WBC [1]: 90 x10_2/uL
KIDNEY_L [1]: 1 g
KIDNEY_R [1]: 1 g
KIDNEY_TOTAL [1]: 2 g
LIVER [1]: 11 g
A/G [1]: 0.9
ALP [1]: 1625 IU/L
ALT [1]: 43 IU/L
AST [1]: 70 IU/L
BUN [1]: 14.8 mg/dL
CRE [1]: 0.2 mg/dL
Ca [1]: 10.7 mg/dL
Cl [1]: 105.8 meq/L
DBIL [1]: 0.022 mg/dL
GLC [1]: 184 mg/dL
IP [1]: 7.6 mg/dL
K [1]: 3.9 meq/L
LDH [1]: 58.6 IU/L
Na [1]: 143 meq/L
PL [1]: 147.6 mg/dL
RALB [1]: 2.6 g/dL
TBIL [1]: 0.026 mg/dL
TC [1]: 86 mg/dL
TG [1]: 88.6 mg/dL
TP [1]: 5.5 g/dL
gamma-GTP [1]: 1 IU/L
TERMINAL_BW [2]: 274.2 g
TERMINAL_BW [3]: 326.9 g
TERMINAL_BW [4]: 438.2 g
APTT [2]: 17.2 s
Bas [2]: 0.2%
Eos [2]: 1%
Fbg [2]: 286.6 mg/dL
Hb [2]: 13.8 g/dL
Ht [2]: 40%
Lym [2]: 75.4%
MCH [2]: 21.6 pg
MCHC [2]: 34.4%
MCV [2]: 62.7 fL
Mono [2]: 3.4%
Neu [2]: 19.2%
PT [2]: 12.9 s
Plat [2]: 126.1 x10_4/uL
RBC [2]: 638.2 x10_4/ul
Ret [2]: 6.4%
WBC [2]: 103.3 x10_2/uL
APTT [3]: 17.8 s
Bas [3]: 0%
Eos [3]: 0.8%
Fbg [3]: 314 mg/dL
Hb [3]: 13.9 g/dL
Ht [3]: 39.7%
Lym [3]: 75.2%
MCH [3]: 21.3 pg
MCHC [3]: 35%
MCV [3]: 60.8 fL
Mono [3]: 2.2%
Neu [3]: 21.4%
PT [3]: 12.8 s
Plat [3]: 103.7 x10_4/uL
RBC [3]: 653.2 x10_4/ul
Ret [3]: 4.2%
WBC [3]: 86.4 x10_2/uL
APTT [4]: 17.4 s
Bas [4]: 0.2%
Eos [4]: 1%
Fbg [4]: 268.4 mg/dL
Hb [4]: 15.1 g/dL
Ht [4]: 42.3%
Lym [4]: 82.2%
MCH [4]: 20.2 pg
MCHC [4]: 35.7%
MCV [4]: 56.5 fL
Mono [4]: 2.6%
Neu [4]: 12.6%
PT [4]: 12.2 s
Plat [4]: 108.5 x10_4/uL
RBC [4]: 749.2 x10_4/ul
Ret [4]: 2.8%
WBC [4]: 121.3 x10_2/uL
KIDNEY_L [2]: 1.1 g
KIDNEY_R [2]: 1.1 g
KIDNEY_TOTAL [2]: 2.2 g
KIDNEY_L [3]: 1.3 g
KIDNEY_R [3]: 1.3 g
KIDNEY_TOTAL [3]: 2.6 g
KIDNEY_L [4]: 1.4 g
KIDNEY_R [4]: 1.4 g
KIDNEY_TOTAL [4]: 2.9 g
LIVER [2]: 13.2 g
LIVER [3]: 14.4 g
LIVER [4]: 18.9 g
A/G [2]: 0.9
ALP [2]: 1625.6 IU/L
ALT [2]: 41.4 IU/L
AST [2]: 68 IU/L
BUN [2]: 15.4 mg/dL
CRE [2]: 0.2 mg/dL
Ca [2]: 10.6 mg/dL
Cl [2]: 104.4 meq/L
DBIL [2]: 0.022 mg/dL
GLC [2]: 184 mg/dL
IP [2]: 7.2 mg/dL
K [2]: 3.8 meq/L
LDH [2]: 80.2 IU/L
Na [2]: 142 meq/L
PL [2]: 160.8 mg/dL
RALB [2]: 2.7 g/dL
TBIL [2]: 0.028 mg/dL
TC [2]: 84.2 mg/dL
TG [2]: 131.8 mg/dL
TP [2]: 5.8 g/dL
gamma-GTP [2]: 1 IU/L
A/G [3]: 0.8
ALP [3]: 1289.6 IU/L
ALT [3]: 46.2 IU/L
AST [3]: 71.8 IU/L
BUN [3]: 15.2 mg/dL
CRE [3]: 0.2 mg/dL
Ca [3]: 11.2 mg/dL
Cl [3]: 105.4 meq/L
DBIL [3]: 0.012 mg/dL
GLC [3]: 180.2 mg/dL
IP [3]: 8.3 mg/dL
K [3]: 3.6 meq/L
LDH [3]: 66.8 IU/L
Na [3]: 144.6 meq/L
PL [3]: 144.6 mg/dL
RALB [3]: 2.7 g/dL
TBIL [3]: 0.018 mg/dL
TC [3]: 78.8 mg/dL
TG [3]: 88.2 mg/dL
TP [3]: 6 g/dL
gamma-GTP [3]: 1 IU/L
A/G [4]: 0.8
ALP [4]: 980.4 IU/L
ALT [4]: 41.2 IU/L
AST [4]: 61.6 IU/L
BUN [4]: 16.6 mg/dL
CRE [4]: 0.2 mg/dL
Ca [4]: 11.4 mg/dL
Cl [4]: 104 meq/L
DBIL [4]: 0.018 mg/dL
GLC [4]: 182.2 mg/dL
IP [4]: 6.9 mg/dL
K [4]: 3.7 meq/L
LDH [4]: 68.8 IU/L
Na [4]: 143 meq/L
PL [4]: 160.2 mg/dL
RALB [4]: 2.8 g/dL
TBIL [4]: 0.022 mg/dL
TC [4]: 77.4 mg/dL
TG [4]: 215 mg/dL
TP [4]: 6.3 g/dL
gamma-GTP [4]: 1 IU/L
TERMINAL_BW [5]: 232.2 g
APTT [5]: 17.3 s
Bas [5]: 0%
Eos [5]: 1.2%
Fbg [5]: 275 mg/dL
Hb [5]: 13.5 g/dL
Ht [5]: 39.8%
Lym [5]: 77%
MCH [5]: 21.5 pg
MCHC [5]: 33.8%
MCV [5]: 63.5 fL
Mono [5]: 3.6%
Neu [5]: 18.2%
PT [5]: 12.8 s
Plat [5]: 112.1 x10_4/uL
RBC [5]: 627.2 x10_4/ul
Ret [5]: 7.3%
WBC [5]: 82.8 x10_2/uL
KIDNEY_L [5]: 1 g
KIDNEY_R [5]: 1 g
KIDNEY_TOTAL [5]: 1.9 g
LIVER [5]: 11.1 g
A/G [5]: 0.9
ALP [5]: 1587 IU/L
ALT [5]: 45.6 IU/L
AST [5]: 70.6 IU/L
BUN [5]: 15 mg/dL
CRE [5]: 0.2 mg/dL
Ca [5]: 10.8 mg/dL
Cl [5]: 105.6 meq/L
DBIL [5]: 0.018 mg/dL
GLC [5]: 182 mg/dL
IP [5]: 8.2 mg/dL
K [5]: 3.7 meq/L
LDH [5]: 58.8 IU/L
Na [5]: 143.6 meq/L
PL [5]: 155.8 mg/dL
RALB [5]: 2.7 g/dL
TBIL [5]: 0.03 mg/dL
TC [5]: 93 mg/dL
TG [5]: 84.4 mg/dL
TP [5]: 5.6 g/dL
gamma-GTP [5]: 1 IU/L
TERMINAL_BW [6]: 267.2 g
TERMINAL_BW [7]: 337.4 g
TERMINAL_BW [8]: 432.5 g
APTT [6]: 17.3 s
Bas [6]: 0.2%
Eos [6]: 1%
Fbg [6]: 286.6 mg/dL
Hb [6]: 13.8 g/dL
Ht [6]: 40.5%
Lym [6]: 79.4%
MCH [6]: 21.6 pg
MCHC [6]: 34.1%
MCV [6]: 63.2 fL
Mono [6]: 3%
Neu [6]: 16%
PT [6]: 12.8 s
Plat [6]: 119.7 x10_4/uL
RBC [6]: 641.4 x10_4/ul
Ret [6]: 5.9%
WBC [6]: 119.6 x10_2/uL
APTT [7]: 17.3 s
Bas [7]: 0%
Eos [7]: 1%
Fbg [7]: 297 mg/dL
Hb [7]: 14.2 g/dL
Ht [7]: 40.8%
Lym [7]: 74.8%
MCH [7]: 21.4 pg
MCHC [7]: 34.8%
MCV [7]: 61.3 fL
Mono [7]: 2.4%
Neu [7]: 21.4%
PT [7]: 12.7 s
Plat [7]: 109.6 x10_4/uL
RBC [7]: 665.6 x10_4/ul
Ret [7]: 4.6%
WBC [7]: 83 x10_2/uL
APTT [8]: 17.5 s
Bas [8]: 0%
Eos [8]: 1%
Fbg [8]: 251.8 mg/dL
Hb [8]: 15.2 g/dL
Ht [8]: 42%
Lym [8]: 70%
MCH [8]: 20.3 pg
MCHC [8]: 36.2%
MCV [8]: 56.2 fL
Mono [8]: 3.4%
Neu [8]: 24.6%
PT [8]: 12.5 s
Plat [8]: 97.4 x10_4/uL
RBC [8]: 746.4 x10_4/ul
Ret [8]: 3.1%
WBC [8]: 106.7 x10_2/uL
KIDNEY_L [6]: 1.2 g
KIDNEY_R [6]: 1.1 g
KIDNEY_TOTAL [6]: 2.3 g
KIDNEY_L [7]: 1.3 g
KIDNEY_R [7]: 1.3 g
KIDNEY_TOTAL [7]: 2.6 g
KIDNEY_L [8]: 1.6 g
KIDNEY_R [8]: 1.6 g
KIDNEY_TOTAL [8]: 3.2 g
LIVER [6]: 12.4 g
LIVER [7]: 14.9 g
LIVER [8]: 17.3 g
A/G [6]: 0.9
ALP [6]: 1719 IU/L
ALT [6]: 45 IU/L
AST [6]: 69.8 IU/L
BUN [6]: 15.8 mg/dL
CRE [6]: 0.2 mg/dL
Ca [6]: 10.5 mg/dL
Cl [6]: 103.8 meq/L
DBIL [6]: 0.014 mg/dL
GLC [6]: 180.8 mg/dL
IP [6]: 7.6 mg/dL
K [6]: 3.9 meq/L
LDH [6]: 62.6 IU/L
Na [6]: 142 meq/L
PL [6]: 152.6 mg/dL
RALB [6]: 2.6 g/dL
TBIL [6]: 0.026 mg/dL
TC [6]: 84.6 mg/dL
TG [6]: 94.4 mg/dL
TP [6]: 5.7 g/dL
gamma-GTP [6]: 1 IU/L
A/G [7]: 0.8
ALP [7]: 1588.8 IU/L
ALT [7]: 47.4 IU/L
AST [7]: 70.4 IU/L
BUN [7]: 14.8 mg/dL
CRE [7]: 0.2 mg/dL
Ca [7]: 11.1 mg/dL
Cl [7]: 105.6 meq/L
DBIL [7]: 0.014 mg/dL
GLC [7]: 179.2 mg/dL
IP [7]: 8.2 mg/dL
K [7]: 3.7 meq/L
LDH [7]: 75 IU/L
Na [7]: 144.6 meq/L
PL [7]: 150.4 mg/dL
RALB [7]: 2.7 g/dL
TBIL [7]: 0.028 mg/dL
TC [7]: 80 mg/dL
TG [7]: 117 mg/dL
TP [7]: 5.8 g/dL
gamma-GTP [7]: 1 IU/L
A/G [8]: 0.8
ALP [8]: 966.8 IU/L
ALT [8]: 41.4 IU/L
AST [8]: 63.2 IU/L
BUN [8]: 15.2 mg/dL
CRE [8]: 0.2 mg/dL
Ca [8]: 11.4 mg/dL
Cl [8]: 104.8 meq/L
DBIL [8]: 0.016 mg/dL
GLC [8]: 192.2 mg/dL
IP [8]: 7.5 mg/dL
K [8]: 3.9 meq/L
LDH [8]: 61.8 IU/L
Na [8]: 142.6 meq/L
PL [8]: 154.6 mg/dL
RALB [8]: 2.8 g/dL
TBIL [8]: 0.028 mg/dL
TC [8]: 84.4 mg/dL
TG [8]: 121.4 mg/dL
TP [8]: 6.1 g/dL
gamma-GTP [8]: 1 IU/L

Source: ChEMBL document CHEMBL3885861, “Open TG-GATES”
